US7449480B2, “Small molecule inhibitors of HER2 expression” (Baylor College of Medicine, priority 2002, dated 2008)
“Also recorded” adds a separate entry of the source.

Tests used:
MCF-7 Her18 = experiment: Cell death in MCF7 cells stably transfected with the Her2 gene; format: cell-based, human; settings: ectopic Her2 on a heterologous promoter
Excerpt: In contrast to the Her2-overexpressing cells, MDA-MB-468, a breast cancer cell line with no detectable levels of Her2, was resistant to TAT-ESX129-145 (FIGS. 5A and 5B). […] The effects of TAT-ESX129-145 on an MCF7 cell line stably transfected with the Her2 gene were examined.

VP16 activation domain = experiment: Transcription reporter gene assay (GAL4 fusion, SEAP), VP16 activation domain; format: cell-based; settings: HEK293 cells, 20 μM, 10-hr incubation
Method: (§1) Mammalian expression vectors each encoding the activation domain of ESX, VP16, or NFκBp65 fused with the GAL4 DNA-binding domain were used. Each expression construct was co-transfected to HEK293Tag human kidney cells together with a reporter plasmid in which the production of secreted alkaline phosphatase (SEAP) is under control of an IL-2 promoter carrying five GAL4 binding sites. After a 24 hour incubation in the presence or absence of adamanolol, an aliquot of the culture was assayed for SEAP activity. The total amounts of transfected DNA were normalized.
(§2) mammalian expression vectors, each encoding the activation domain of ESX, VP16, or NF-κB p65 fused with the GAL4 DNA-binding domain (amino acids 1-94), were used. Each expression construct was co-transfected to HEK293Tag human kidney cells together with a reporter plasmid in which the production of secreted alkaline phosphatase (SEAP) is under control of an IL2 promoter carrying five GAL4 binding sites. After 10-hr incubation with wrenchnolol (20 μM), an aliquot of the culture was assayed for SEAP activity.

[1] = system: NF-κB p65 activation domain; experiment: Transcription reporter gene assay (GAL4 fusion, SEAP), NF-κB p65 activation domain; format: cell-based, human; settings: HEK293 cells, 20 μM, 10-hr incubation
Method: as §2

Sur-2 (GST-Sur2352-625) = target: T1, Sur-2 (GST-Sur2352-625) (Homo sapiens, UniProt Q9ULK4); experiment: Fluorescence perturbation of fluorescein conjugate 9 by GST-Sur2352-625; format: binding; settings: measured with fluorescein conjugate 9, emission at 522 nm
T1 construct: made in house
T1 sequence (Q9ULK4 352-625): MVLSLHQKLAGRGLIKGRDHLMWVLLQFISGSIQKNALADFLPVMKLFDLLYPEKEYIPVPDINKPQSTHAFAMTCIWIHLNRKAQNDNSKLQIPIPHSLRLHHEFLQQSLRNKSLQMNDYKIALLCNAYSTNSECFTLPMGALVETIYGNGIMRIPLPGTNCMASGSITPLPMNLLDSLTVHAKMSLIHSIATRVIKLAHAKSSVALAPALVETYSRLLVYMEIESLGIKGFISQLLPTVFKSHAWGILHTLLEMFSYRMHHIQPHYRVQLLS
Method: (§3) HeLa cell nuclear extracts were prepared as described47 and incubated with a biotin conjugate of wrenchnolol (8) (100 μM) at 4° C. for 24 hrs. The samples were incubated with Neutravidin affinity resin (Pierce) at 4° C. for 2 hrs and extensively washed with PBS buffer containing 0.5% Nonidet P-40. The bound proteins were then separated by SDS/PAGE and analyzed by western blots with an antibody against human Sur-2 or by silver-staining. A=Ao+0.5.e([9]o+(([9]o+[P]oKd)2−4[9]o[P]o)0.5)
Where A and Ao are the values of fluorescence intensity of 9 in the presence or absence of GST-Sur2352-625, respectively, and .e is the differential fluorescence intensity of 1 μM of 9 in the presence of an infinite concentration of protein and in its absence. [9]o and [P]o are the total concentrations of 9 and protein added, respectively.
The fluorescein conjugate 9 also enabled evaluation of the Kd value of the interaction between wrenchnolol and Sur-2 in vitro. Shown in FIG. 22C are relative emission intensities of 9 at 522 nm (excitation: 490 nm) in the presence of varied concentrations of GST-Sur2352-625. When a GST fusion of Sur-2 protein (GST-Sur2352-625) was added to a solution of conjugate 9, the fluorescence intensity of 9 at 522 nm was decreased ([…]).

ESX-Sur-2 interaction = target: T2, ESX-Sur-2 interaction (Homo sapiens, UniProt Q9ULK4); experiment: Inhibition of the ESX-Sur-2 interaction in vitro (fluorescence of FITC-ESX129-145 with GST-Sur2352-625); format: binding
T2 construct: made in house
T2 sequence (Q9ULK4 352-625): T1 sequence (Q9ULK4 352-625)
Method: To monitor the ESX-DRIP130 interaction, we labeled ESX129-145 with fluorescein isothiocyanate (FITC; Pierce) at the Lys144 position and measured its fluorescence spectra upon adding the glutatathione-S′-transferase (GST) fusion of DRIP130352-625. ESX129-145 was synthesized by standard Fmoc chemistry (the NH2 terminus was capped by an acetyl group during the synthesis) and purified by HPLC. The peptide was then coupled with FITC at the Lys144 position in a conjugation buffer (100 mM carbonate-bicarbonate buffer, pH 9) in dark and purified by NAP-5 desalting column (Amersham). The labeled peptide was quantified by UV and visible absorbance.
GST-Sur-2352-625 was expressed and purified. Varied concentrations of the fusion protein were added to FITC-ESX129-145 (10 nM) in phosphate buffered saline containing 2% (v/v) ethanol, and the fluorescence spectra of FITC-ESX129-145 were measured by an ABI LS-50B Fluorescence Spectrometer (Ex: 490 nm). The dissociation constant of the interaction was estimated to be 12 μM through the emission perturbation at 522 nm.
To examine the effects of adamanolol on the interaction in vitro, the ethanol component of the binding buffer was replaced with an ethanolic solution of adamanolol. The fractions of FITC-ESX129-145 (10 nM) bound to 50 μM of GST-Sur-2352-625 were estimated by measuring fluorescence emission at 522 nm. ESX129-145 and pindolol were used as positive and negative controls, respectively.
In another series of derivatives (the R3 substituents in Table 1), the adamantane group of adamanolol was substituted (11a-d). […] The binding fractions were calculated on the basis of fluorescence spectra of FITC-ESX129-145 (152 nM) in presence of GST-Sur2352-625 (212 nM) and varied concentrations of each adamanolol derivative.

Her2 = Her2 protein expression by western blot of cell lysates; format: cell-based, human; settings: SK-BR3 cells, 7 μM, 24 hrs; alpha-tubulin not reduced
Excerpt: Sur-2 is a human homolog of […] elegans Sur-2, a protein of unknown function whose mutations suppress the phenotype of an activated ras mutation (Singh et al., 1995), and it has been linked to the transcription-activating function of the adenovirus E1A protein and the Elk-1 transcription factor. […] To test this, we designed a cell-permeable peptide that binds Sur-2 (referred to as TAT-ESX129-145). The design takes advantage of the binding affinity of ESX129-145 and the cell internalization property of the 11-aa peptide derived from the HIV TAT protein. We first examined whether TAT ESX129-145 reduces endogenous expression of the Her2 gene in three Her2-overexpressing breast cancer cell lines, SK-BR-3, MDA-MB-453, and […] (FIG. 4). Cells were incubated in the presence or absence of TAT-ESX129-145, and the protein levels of Her2 were examined by Western blot analyses of normalized amounts of cell lysates.
Her2-overexpressing SK-BR3 cells were treated by 7.3 μM of adamanolol for 24 hrs, and whole cell lysates were analyzed by western blots. […]
SK-BR3 cells were treated by 7 μM of wrenchnolol for 24 hrs, and whole cell lysates were analyzed by western blots. […]

ESX activation domain = experiment: Transcription reporter gene assay (GAL4 fusion, SEAP), ESX activation domain; format: cell-based, human; settings: HEK293 cells, 20 μM, 10-hr incubation
Method: as §1, §2

[2] = system: SK-BR3 breast cancer cells; experiment: Cell viability assay (WST-1) in SK-BR3 breast cancer cells; format: cell-based, human
Method: SK-BR3 breast cancer cells were plated on 96-well plates at density of 5×10^3 cells/well and maintained for 24 hrs. The cells were then incubated with varied concentrations of each compound for 48 hrs, followed by addition of Premix WST-1 Solution (Takara). Cell viability was estimated by measuring absorbance at 450 nm after 1 hr with a SPECTRAmax microplatereader.

[3] = Solubility in neutral aqueous solution; format: physicochemical; settings: amino group of the handle protonated
Method: When the amino group of the handle was protonated, wrenchnolol (7b) and its aminopropyl version (7a) became soluble up to ˜1 mM in neutral aqueous solution. The high water solubility enabled NMR analysis of these molecules in a buffered aqueous solution, and their proton signals were completely assigned through a combination of NOESY, DQF-COSY, and HOHAHA data sets (Table S1).

Sur-2 = target: T3, Sur-2 (Homo sapiens, UniProt Q9ULK4); experiment: Sur-2 interaction of biotin conjugate in HeLa cell nuclear extracts (Neutravidin affinity, western blot); format: binding; settings: 100 μM, 4° C., 24 hrs
T3 construct: HeLa cell nuclear extracts were prepared as described47 and incubated with a biotin conjugate of wrenchnolol (8); endogenous in cells; host or cells: HeLa cell nuclear extracts
T3 sequence (Q9ULK4 1-1368): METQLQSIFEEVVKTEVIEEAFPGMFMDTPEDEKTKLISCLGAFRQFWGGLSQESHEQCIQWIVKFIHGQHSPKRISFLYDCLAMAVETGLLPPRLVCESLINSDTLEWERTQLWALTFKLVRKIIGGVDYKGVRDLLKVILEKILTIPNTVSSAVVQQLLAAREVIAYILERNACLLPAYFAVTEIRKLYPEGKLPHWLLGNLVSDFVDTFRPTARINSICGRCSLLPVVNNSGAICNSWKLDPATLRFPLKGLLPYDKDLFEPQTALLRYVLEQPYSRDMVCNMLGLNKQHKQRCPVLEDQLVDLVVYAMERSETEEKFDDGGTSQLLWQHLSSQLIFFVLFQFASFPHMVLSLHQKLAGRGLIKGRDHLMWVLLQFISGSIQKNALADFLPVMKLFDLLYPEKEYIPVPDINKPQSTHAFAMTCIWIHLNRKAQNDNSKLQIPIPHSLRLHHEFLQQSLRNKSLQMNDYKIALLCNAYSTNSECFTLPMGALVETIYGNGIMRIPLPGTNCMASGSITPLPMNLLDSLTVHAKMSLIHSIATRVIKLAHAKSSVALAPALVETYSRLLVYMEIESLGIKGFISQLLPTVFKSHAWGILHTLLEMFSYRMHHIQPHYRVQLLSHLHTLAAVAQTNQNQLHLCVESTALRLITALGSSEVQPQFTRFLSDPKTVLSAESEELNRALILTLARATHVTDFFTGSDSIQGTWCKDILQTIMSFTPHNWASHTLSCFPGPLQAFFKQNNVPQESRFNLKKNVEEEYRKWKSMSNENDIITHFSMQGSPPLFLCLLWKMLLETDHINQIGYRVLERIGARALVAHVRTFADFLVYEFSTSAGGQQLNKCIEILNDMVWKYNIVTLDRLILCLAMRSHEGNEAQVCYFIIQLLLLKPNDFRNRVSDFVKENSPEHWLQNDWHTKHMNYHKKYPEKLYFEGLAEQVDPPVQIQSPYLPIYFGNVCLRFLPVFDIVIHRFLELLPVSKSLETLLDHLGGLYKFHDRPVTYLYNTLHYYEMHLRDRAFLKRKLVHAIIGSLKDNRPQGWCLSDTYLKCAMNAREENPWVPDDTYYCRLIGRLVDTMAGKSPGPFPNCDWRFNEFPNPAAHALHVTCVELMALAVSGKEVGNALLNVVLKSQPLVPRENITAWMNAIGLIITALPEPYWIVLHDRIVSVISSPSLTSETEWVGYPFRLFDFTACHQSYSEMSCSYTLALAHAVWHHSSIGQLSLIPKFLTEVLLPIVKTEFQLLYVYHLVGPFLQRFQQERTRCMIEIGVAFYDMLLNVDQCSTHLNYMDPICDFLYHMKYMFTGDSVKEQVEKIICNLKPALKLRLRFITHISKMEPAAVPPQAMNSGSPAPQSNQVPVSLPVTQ
Method: as §3
To confirm the interaction of wrenchnolol with Sur-2 in a cellular context, a biotin conjugate of wrenchnolol (8) was synthesized (Scheme 1) and incubated with cell nuclear extracts. The bound proteins were purified through an avidin affinity column, separated on an SDS-PAGE gel, and analyzed by western blots with a Sur-2 antibody. […] One of the silver-stained bands matched the western-blotted band of Sur-2, while the identities of the other bands remained unknown. Sur-2 (also called DRIP130 or CRSP130) is a subunit of the human mediator complexes. The additional bands may include those of the other subunits copurified with Sur-2.

## ESX129-145: 17-aa segment of the ESX activation domain (TSSSSDELSWIIELLEK; UniProt P78545 129-145, looked up, fragment)
MCF-7 Her18
  peptide-mediated cell death in Her2-transfected MCF7 cells: resistant

## Cc1ccc(S(=O)(=O)n2ccc3c(OCC(O)CN(CCCCCN)C(=O)N4CCC(C5CCN(C(=O)C67CC8CC(CC(C8)C6)C7)CC5)CC4)cccc32)cc1 (stereo not drawn) [Compound 7b, Wrenchnolol]
VP16 activation domain
  effect on the VP16 activation domain: much milder effects
[1]
  effect on the NF-κB p65 activation domain: much milder effects
Sur-2 (GST-Sur2352-625)
  Kd of the wrenchnolol-Sur-2 interaction: low μM range
ESX-Sur-2 interaction; FITC-ESX129-145 (152 nM), GST-Sur2352-625 (212 nM)
  IC50: 10 ± 1.5 µM
ESX-Sur-2 interaction; in vitro fluorescence assay
  inhibition of the ESX-Sur-2 interaction in vitro (in words): more strongly than adamanolol
Her2
  expression of Her2 protein: reduces; also recorded: inhibition of Her2 protein expression
ESX activation domain
  ability of the ESX activation domain to activate the reporter gene: impaired; also recorded: selectively impairs
[2]; 48 hrs incubation, WST-1
  IC50: 6.9 µM
[2]; compared with adamanolol
  ability to kill SK-BR3 cells (biological activity, in words): no less active than adamanolol
[3]
  solubility in neutral aqueous solution: ~1 mM

## O=C(O)CCCC[C@@H]1SC[C@@H]2NC(=O)N[C@@H]21 [Compound 13]
Sur-2
  retention of Sur-2 protein on the affinity column: no Sur-2 protein was detected
